For 17 molecules, TGI and GI50 results are on record in PubChem BioAssay (NCI).

Test systems include MOLT-4 leukemia; KM20L2 colon; UACC-62 melanoma; HCC-2998 colon; COLO 205 colon; NCI-H460 lung; OVCAR-4 ovarian; SNB-78 CNS; SW-620 colon; SNB-19 CNS; M19-MEL melanoma.
Holding throughout (experiment): DTP human tumour cell line panel, 48 h

The structures appear in SMILES notation. Where “and” joins values, the source holds several entries; their conditions need not be identical. Equal entries are not always repeated.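 Tested at 5 concentrations; 48 h exposure; 96-well plates; endpoints linearly interpolated, else capped at highest concentration. GI50: concentration for 50% inhibition of growth. TGI marks complete inhibition of growth.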

On to `C/C(CC(=O)CCC(=O)Nc1cccc(C(F)(F)F)c1)=N\NC(=O)NN`, for which the TGI with MOLT-4 leukemia, with KM20L2 colon, with UACC-62 melanoma, in the test on HCC-2998 colon, in the test with COLO 205 colon and in the test with NCI-H460 lung was greater than 100 µM throughout. Also, the TGI in the test with OVCAR-4 ovarian, in the test on SNB-78 CNS, in the test with SW-620 colon, with SNB-19 CNS and in the test with M19-MEL melanoma was greater than 100 µM throughout.
Take `O=CN/C=C/c1cc(O)ccc1O`: the TGI (as a rule, the concentration giving total growth inhibition) was greater than 63.4 µM with MOLT-4 leukemia; greater than 80.3 µM in the test on KM20L2 colon; 27.3 µM in the test on UACC-62 melanoma; greater than 100 µM in the test with HCC-2998 colon; 26.5 µM in the test on COLO 205 colon; greater than 100 µM with NCI-H460 lung. In addition, the concentration for total growth inhibition (TGI) with OVCAR-4 ovarian was 32.2 µM; in the test with SNB-78 CNS, 44.3 µM; with SW-620 colon, 21.5 µM; with SNB-19 CNS, greater than 100 µM; in the test on M19-MEL melanoma, 28.5 µM.
As to `N#CC(c1ccc(Cl)cc1)c1cccc(C(C#N)c2ccc(Cl)cc2)n1` (configuration not stated), the total growth inhibition concentration (TGI) in the test on MOLT-4 leukemia is greater than 100 µM; in the test with KM20L2 colon, greater than 100 µM; in the test on UACC-62 melanoma it was greater than 100 µM; in the test with HCC-2998 colon, greater than 100 µM; in the test on COLO 205 colon, 43 µM; in the test on NCI-H460 lung, greater than 100 µM. Moreover, the TGI in the test on OVCAR-4 ovarian, in the test on SNB-78 CNS, in the test on SW-620 colon, with SNB-19 CNS and in the test on M19-MEL melanoma was greater than 100 µM each time.
On to `Cn1cnc([N+](=O)[O-])c1Sc1nnc(-c2cccnc2)n1C`, for which the TGI was 52 µM in the test on MOLT-4 leukemia; greater than 100 µM in the test on KM20L2 colon; 32.6 µM with UACC-62 melanoma; 67.1 µM with HCC-2998 colon; 28.9 µM in the test on COLO 205 colon; greater than 100 µM with NCI-H460 lung. The TGI was 56.6 µM with OVCAR-4 ovarian; 63.2 µM in the test with SNB-78 CNS; 31.3 µM in the test with SW-620 colon; greater than 100 µM with SNB-19 CNS; 38.8 µM in the test on M19-MEL melanoma.
For the molecule `COC(=O)[C@@H]1[C@H](O)[C@H](C)[C@H](O)[C@@](C)(O)/C=C\C=C(C)C(=O)Nc2c(C)c(OC(C)=O)c3c(c2O)C(=O)C(C)=C2OCOC(=C23)C(C)=C[C@@](C)(O)[C@H](O)[C@@H](C)[C@H]1OC(C)=O`, the TGI was greater than 100 µM in the test on MOLT-4 leukemia; 66.9 µM and > 100 µM in the test on KM20L2 colon; > 100 µM and 66.9 µM and 54.5 µM in the test on UACC-62 melanoma; > 100 µM and 66.9 µM in the test with HCC-2998 colon; > 100 µM and 29 µM and 37.3 µM in the test with COLO 205 colon; greater than 100 µM in the test on NCI-H460 lung. For the same molecule, the TGI is > 100 µM and 66.9 µM with OVCAR-4 ovarian; greater than 100 µM with SNB-78 CNS; > 100 µM and 21 µM in the test with SW-620 colon; greater than 100 µM in the test with SNB-19 CNS; > 100 µM and 21.6 µM and 28.3 µM with M19-MEL melanoma. Moreover, the GI50 (as a rule, the concentration that inhibits growth by half) in the test with UACC-62 melanoma was 25.1 µM; with HCC-2998 colon, 11.1 µM; with NCI-H460 lung it was greater than 66.9 µM; in the test on OVCAR-4 ovarian it was 63.2 µM; with SNB-19 CNS it was greater than 66.9 µM; with M19-MEL melanoma, 15 µM.
Consider `O=C(O)CCc1coc2ccc(O)cc12`, for which the TGI with MOLT-4 leukemia, with KM20L2 colon, with UACC-62 melanoma, with HCC-2998 colon, with COLO 205 colon and with NCI-H460 lung was greater than 100 µM in each case. For the same molecule, the TGI with OVCAR-4 ovarian, with SNB-78 CNS, in the test with SW-620 colon, with SNB-19 CNS and in the test with M19-MEL melanoma was greater than 100 µM throughout.
For `COc1ccccc1C12OC(=O)C1(C)Oc1ccccc1C2=O` (configuration not stated), the total growth inhibition concentration (TGI) in the test on MOLT-4 leukemia, with KM20L2 colon, in the test on UACC-62 melanoma, with HCC-2998 colon, in the test with COLO 205 colon and with NCI-H460 lung was greater than 100 µM in each case. Moreover, the concentration for total growth inhibition (TGI) in the test on OVCAR-4 ovarian, in the test on SNB-78 CNS, with SW-620 colon, in the test with SNB-19 CNS and with M19-MEL melanoma was greater than 100 µM throughout.
As for `COC(CN1C(=O)c2cccc3cccc(c23)C1=O)OC`, the TGI in the test on MOLT-4 leukemia, with KM20L2 colon, with UACC-62 melanoma, with HCC-2998 colon, with COLO 205 colon and in the test on NCI-H460 lung was greater than 100 µM throughout. The TGI in the test with OVCAR-4 ovarian, with SNB-78 CNS, in the test with SW-620 colon, in the test on SNB-19 CNS and with M19-MEL melanoma was greater than 100 µM throughout.
As to `Clc1cc2nsnc2c(Cl)n1`, the TGI in the test with MOLT-4 leukemia is 43.6 µM; in the test on KM20L2 colon, greater than 100 µM; in the test with UACC-62 melanoma, greater than 100 µM; in the test on HCC-2998 colon, greater than 100 µM; in the test on COLO 205 colon, 31.7 µM; with NCI-H460 lung, greater than 100 µM. In addition, the TGI in the test with OVCAR-4 ovarian is 31.3 µM; in the test on SNB-78 CNS, greater than 100 µM; with SW-620 colon, 27.8 µM; with SNB-19 CNS it was 36.7 µM; with M19-MEL melanoma, 75.5 µM.
As for `O=C(/C=C/c1ccccc1)NC1C=Nc2ccc(Cl)cc2NC1=O` (configuration not stated), the TGI was 27.3 µM with MOLT-4 leukemia; 62.9 µM with KM20L2 colon; greater than 100 µM in the test with UACC-62 melanoma; 65.5 µM in the test on HCC-2998 colon; 33.9 µM with COLO 205 colon; 51 µM with NCI-H460 lung. Also, the concentration for total growth inhibition (TGI) in the test with OVCAR-4 ovarian is greater than 100 µM; with SNB-78 CNS, greater than 100 µM; with SW-620 colon, 24.2 µM; with SNB-19 CNS, greater than 100 µM; in the test with M19-MEL melanoma it was 64.5 µM.
Regarding `O=C(CC1(O)C(=O)Nc2c(Cl)cc(Cl)cc21)c1ccc(Br)cc1Br` (configuration not stated), the concentration for total growth inhibition (TGI) in the test with MOLT-4 leukemia worked out at 17.3 µM; in the test on KM20L2 colon, 33.9 µM; in the test with UACC-62 melanoma it was 25.6 µM; with HCC-2998 colon, 30.6 µM; with COLO 205 colon, 16.9 µM; with NCI-H460 lung, 28.9 µM. Further, the TGI with OVCAR-4 ovarian was 29.5 µM; in the test on SNB-78 CNS, greater than 74.9 µM; in the test on SW-620 colon, 10.7 µM; in the test with SNB-19 CNS it was 41 µM; in the test with M19-MEL melanoma it was 25.1 µM.
Take `CCOc1ccc(NC(=O)C(=O)CC(=O)c2c[n+](=O)c3cc(C)c(C)cc3n2[O-])cc1`: the TGI with MOLT-4 leukemia, in the test with KM20L2 colon, in the test with UACC-62 melanoma, in the test on HCC-2998 colon, with COLO 205 colon and in the test with NCI-H460 lung was greater than 100 µM throughout. In addition, the TGI in the test on OVCAR-4 ovarian, in the test on SNB-78 CNS, in the test with SW-620 colon, in the test on SNB-19 CNS and with M19-MEL melanoma was greater than 100 µM throughout.
In the case of `CC(C)=CC(=O)C1c2cccc(O)c2C(=O)c2c(O)cc(C)cc21` (configuration not stated), the TGI with MOLT-4 leukemia came out at 20.7 µM; in the test with KM20L2 colon, 17.6 µM; with HCC-2998 colon it was 5.67 µM; with COLO 205 colon, 3.4 µM; with NCI-H460 lung, 10.1 µM; in the test with OVCAR-4 ovarian it was 4.52 µM. Besides, the TGI was determined as 7.84 µM in the test on SNB-78 CNS, 10.2 µM in the test on SW-620 colon, 16.3 µM in the test with SNB-19 CNS and 3.43 µM with M19-MEL melanoma.
As for `O=C1C2C(C(=O)N1OS(=O)(=O)c1ccccc1)N(Cc1ccccc1)C(=O)N2Cc1ccccc1` (configuration not stated), the TGI in the test on MOLT-4 leukemia, in the test on KM20L2 colon, in the test on UACC-62 melanoma, in the test on HCC-2998 colon, with COLO 205 colon and in the test on NCI-H460 lung was greater than 100 µM in each case. Besides, the total growth inhibition concentration (TGI) with OVCAR-4 ovarian, in the test with SNB-78 CNS, in the test with SW-620 colon, in the test with SNB-19 CNS and in the test with M19-MEL melanoma was greater than 100 µM throughout.
With `COC(=O)CC1CCN(C#N)CC1CC[N+](=O)[O-]` (configuration not stated), the TGI in the test with MOLT-4 leukemia, in the test on KM20L2 colon, with UACC-62 melanoma, in the test with HCC-2998 colon, in the test with COLO 205 colon and in the test on NCI-H460 lung was greater than 100 µM each time. The TGI in the test with OVCAR-4 ovarian, in the test on SNB-78 CNS, with SW-620 colon, in the test on SNB-19 CNS and in the test on M19-MEL melanoma was greater than 100 µM in each case.
On to `COc1cc2c(cc1OC)-c1c3cc(O)ccc3nn[n+]1CC2`, for which the total growth inhibition concentration (TGI) with MOLT-4 leukemia, in the test with KM20L2 colon, with UACC-62 melanoma, in the test with HCC-2998 colon, with COLO 205 colon and in the test on NCI-H460 lung was greater than 100 µM each time. Also, the concentration for total growth inhibition (TGI) in the test on OVCAR-4 ovarian, with SNB-78 CNS, in the test with SW-620 colon, in the test on SNB-19 CNS and in the test on M19-MEL melanoma was greater than 100 µM in each case.
For the molecule `CCCCCCCCCCCCCCCCCC(CCCCCCCCCCCCCCCCC)OP(=O)(O)O`, the concentration for total growth inhibition (TGI) in the test with MOLT-4 leukemia, with KM20L2 colon, with UACC-62 melanoma, with HCC-2998 colon, in the test on COLO 205 colon and in the test with NCI-H460 lung was greater than 100 µM in each case. Further, the TGI in the test on OVCAR-4 ovarian, with SNB-78 CNS, in the test on SW-620 colon, with SNB-19 CNS and in the test on M19-MEL melanoma was greater than 100 µM throughout.
